The source of these data is ChEMBL document CHEMBL1150061, “Isolation of 9-Dihydro-13-acetylbaccatin III from Taxus canadensis” (J Nat Prod, 1992).

Molecules are shown by their SMILES. Converted amounts (≈) assume the structure as drawn.

This experiment concerns P388. In words: Antiproliferative activity against mouse P388 cells by MTT assay. It is filed as functional, cell-based. (Formazan colour is commonly taken as a measure of viable cells.)

For orientation: IC50 means the midpoint of a concentration-inhibition curve. Read a low IC50 as inhibition by little substance. For the compound `CC(=O)O[C@H]1C[C@@]2(O)[C@@H](OC(=O)c3ccccc3)[C@@H]3[C@]4(OC(C)=O)CO[C@@H]4C[C@H](O)[C@@]3(C)[C@@H](O)[C@H](OC(C)=O)C(=C1C)C2(C)C`, the IC50 worked out at 20 µg/mL (≈ 31.7 µM).
The value for `CC(=O)O[C@H]1C(=O)[C@@]2(C)[C@H]([C@H](OC(=O)c3ccccc3)[C@]3(O)C[C@H](OC(=O)[C@H](O)[C@@H](NC(=O)c4ccccc4)c4ccccc4)C(C)=C1C3(C)C)[C@]1(OC(C)=O)CO[C@@H]1C[C@@H]2O` [PACLITAXEL] was 0.05 µg/mL (≈ 0.0586 µM).
